The nature of data set [1]: Metabolic stability in human hepatocytes assessed as intrinsic clearance measured per 10^6 cells. The format is ADME, cell-based, Hepatocyte. As to conditions: read-out: CLH.
Data set [2] is described as follows: AUCinf in Sprague-Dawley rat at 2 mg/kg, po measured up to 8 hrs by LC-MS/MS analysis. Format: ADME, organism-based. Conditions: in vivo.
In data set [3] the target is T1, Tyrosine-protein kinase receptor UFO (Homo sapiens, UniProt P30530).
T1 sequence (P30530 whole entry): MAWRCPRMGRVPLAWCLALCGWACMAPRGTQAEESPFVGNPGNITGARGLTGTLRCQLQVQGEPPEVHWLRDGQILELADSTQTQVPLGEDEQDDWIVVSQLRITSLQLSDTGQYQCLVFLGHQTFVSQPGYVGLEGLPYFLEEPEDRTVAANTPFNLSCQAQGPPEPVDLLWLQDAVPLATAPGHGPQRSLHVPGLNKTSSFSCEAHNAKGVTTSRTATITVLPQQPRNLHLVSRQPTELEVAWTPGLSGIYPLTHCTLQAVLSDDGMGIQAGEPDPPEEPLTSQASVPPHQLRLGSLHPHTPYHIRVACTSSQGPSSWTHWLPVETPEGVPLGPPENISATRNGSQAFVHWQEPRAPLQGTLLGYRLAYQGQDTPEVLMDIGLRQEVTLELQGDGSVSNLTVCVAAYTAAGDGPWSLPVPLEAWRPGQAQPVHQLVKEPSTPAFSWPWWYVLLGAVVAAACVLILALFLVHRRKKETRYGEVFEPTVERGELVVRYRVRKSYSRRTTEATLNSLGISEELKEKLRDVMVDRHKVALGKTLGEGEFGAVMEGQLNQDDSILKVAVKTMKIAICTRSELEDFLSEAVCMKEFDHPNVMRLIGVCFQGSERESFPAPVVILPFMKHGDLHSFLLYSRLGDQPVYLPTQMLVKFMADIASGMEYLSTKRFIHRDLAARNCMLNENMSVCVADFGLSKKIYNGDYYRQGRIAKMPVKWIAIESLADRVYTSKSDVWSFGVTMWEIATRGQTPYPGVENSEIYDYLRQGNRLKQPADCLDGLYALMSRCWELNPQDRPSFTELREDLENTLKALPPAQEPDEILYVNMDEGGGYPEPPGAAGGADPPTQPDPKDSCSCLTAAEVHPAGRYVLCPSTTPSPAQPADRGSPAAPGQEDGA
The data set can be described thus: Binding affinity to AXL (unknown origin) expressed in HEK293 cells transfected with Nano-Luc fusion vector assessed as dissociation constant by measuring decrease in BRET signal preincubated for 1 hr followed by K-5 NanoBRET tracer addition incubated for 2 hrs. Format: cell-based. In general terms: BRET reads energy transfer from a luciferase to a nearby fluorophore.

Data set [4] concerns the target T1, Tyrosine-protein kinase receptor UFO. As to the kind of experiment: Inhibition of human AXL measured after 150 mins by ATP-competitive HTRF based biochemical assay. (In general: In TR-FRET formats the signal depends on donor and acceptor labels being close together.)
Data set [5] can be described thus: Metabolic stability in rat hepatocytes assessed as intrinsic clearance measured per 10^6 cells. Format: ADME, cell-based, Hepatocyte. As to conditions: read-out: CLH.
Data set [6] has as its target T1, Tyrosine-protein kinase receptor UFO. The data set can be described thus: Inhibition of autophosphorylation AXL (unknown origin) expressed in HEK293 cells assessed as NanoLuc activity associated with phosphorylated proteins measured after 1 hr incubation by intracellular pAXL-ELISA. Format: cell-based.

A value given as a limit tells only on which side of the number the result lay.

One may read the AUC(0-inf) as the area under the concentration-time curve extrapolated to infinity. A low value points to low exposure. Usually Kd stands for the concentration at which binding is half-saturated. Broadly, the IC50 is the point on the concentration scale where inhibition reaches its midpoint. As for `CS(=O)(=O)c1ccc(-c2n[nH]c3ncc(-c4ccc5c(c4)CC[C@@H](N4C6COCC4C6)CC5)cc23)cc1`, the values for the hepatocyte CLint in data set [1] and in data set [5] were 5.8 µL/min/1e6 cells and 9.8 µL/min/1e6 cells, respectively. In data set [2], this molecule returned an AUC(0-inf) of 120 ng·h/mL. For the same molecule, in data set [3], the Kd was determined as 13 nM. This molecule also gave an IC50 in data set [4] of 3.8 nM.
Consider `CO[C@H]1C[C@@H](N[C@H]2CCc3ccc(-c4cnc5[nH]nc(-c6ccc(-c7ncccc7C)cc6)c5c4)cc3CC2)C1`, for which the IC50 in data set [6] is 310 nM; in data set [4], 3.4 nM. The hepatocyte CLint in data set [1] was < 2.7 µL/min/1e6 cells; in data set [5], 6.4 µL/min/1e6 cells.
Take `c1cc2c(cc1-c1cnc3[nH]nc(-c4ccc5c(c4)OCCO5)c3c1)CCC(N1C3COCC1C3)CC2` (racemic): the hepatocyte CLint is 16 µL/min/1e6 cells in data set [1] and 46 µL/min/1e6 cells in data set [5]. Moreover, the dissociation constant (Kd) in data set [3] worked out at 69 nM. Also, in data set [4], the IC50 stood at 17 nM.
On to `FC(F)(F)c1cccnc1-c1ccc(-c2n[nH]c3ncc(-c4ccc5c(c4)CC[C@@H](N4C6COCC4C6)CC5)cc23)cc1`, for which the IC50 turned out to be 730 nM in data set [6] and 8.2 nM in data set [4]. The hepatocyte CLint in data set [1] and in data set [5] was < 2.7 µL/min/1e6 cells throughout.
With `Cc1cccnc1-c1ccc(-c2n[nH]c3ncc(-c4ccc5c(c4)CC[C@@H](N[C@H]4CCCOC4)CC5)cc23)cc1`, the IC50 in data set [6] amounted to 100 nM; in data set [4], 2.6 nM. Besides, the hepatocyte CLint was 5.8 µL/min/1e6 cells in data set [1] and 12 µL/min/1e6 cells in data set [5].
On to `Cn1nncc1-c1ccc(-c2n[nH]c3ncc(-c4ccc5c(c4)CC[C@@H](N4C6COCC4C6)CC5)cc23)cc1`, for which the Kd in data set [3] was 91 nM. Further, the IC50 in data set [4] was 8.9 nM.
For `c1cc2c(cc1-c1cnc3[nH]nc(-c4ccc(N5C[C@@H]6C[C@H]5CO6)cc4)c3c1)CC[C@@H](N1C3COCC1C3)CC2`, in that order: 140 nM and 46 nM.
Consider `O=S1(=O)CCCN1c1ccc(-c2n[nH]c3ncc(-c4ccc5c(c4)CC[C@@H](N4C6COCC4C6)CC5)cc23)cc1`, for which the hepatocyte CLint in data set [1] and in data set [5] was < 2.7 µL/min/1e6 cells throughout. The molecule also came in with an area under the curve AUC(0-inf) in data set [2] of 39 ng·h/mL. Also, the Kd in data set [3] was 51 nM. In data set [4], this molecule returned an IC50 of 13 nM.
Regarding `Cn1nccc1-c1ccc(-c2n[nH]c3ncc(-c4ccc5c(c4)CC[C@@H](N4C6COCC4C6)CC5)cc23)cc1`, the Kd in data set [3] amounted to 31 nM. Also, the IC50 in data set [4] turned out to be 3.9 nM.
With `c1cc(-c2n[nH]c3ncc(-c4ccc5c(c4)CCC(N4C6COCC4C6)CC5)cc23)ccn1` (racemic), the hepatocyte CLint is 8.7 µL/min/1e6 cells in data set [1] and 13 µL/min/1e6 cells in data set [5]. In data set [2], this molecule had an AUC(0-inf) of 130 ng·h/mL. Also, the Kd in data set [3] came out at 38 nM. Moreover, the concentration for half-maximal inhibition (IC50) in data set [4] was found to be 20 nM.
Regarding `Cn1cc(-c2ccc(-c3n[nH]c4ncc(-c5ccc6c(c5)CCC(N5C7COCC5C7)CC6)cc34)cc2)cn1` (racemic), in data set [3], the Kd amounted to 2200 nM. Besides, the IC50 in data set [4] stood at 34 nM.
As for `CN(C)S(=O)(=O)c1ccc(-c2n[nH]c3ncc(-c4ccc5c(c4)CC[C@@H](N4C6COCC4C6)CC5)cc23)cc1`, the hepatocyte CLint in data set [1] is 36 µL/min/1e6 cells; in data set [5], 110 µL/min/1e6 cells. The Kd in data set [3] was found to be 15 nM. In data set [4], this molecule displayed an IC50 of 2.6 nM.
With `c1cc2c(cc1-c1cnc3[nH]nc(-c4ccc(N5CC6(COC6)C5)cc4)c3c1)CC[C@@H](N1C3COCC1C3)CC2`, the Kd in data set [3] stood at 120 nM. This molecule also had an IC50 in data set [4] of 27 nM.
In the case of `O=C1CCCN1c1ccc(-c2n[nH]c3ncc(-c4ccc5c(c4)CC[C@@H](N4C6COCC4C6)CC5)cc23)cc1`, in data set [3], the Kd is 89 nM. This molecule had an IC50 in data set [4] of 60 nM.
Taken in the same sequence, the figures for `c1cncc(-c2ccc(-c3n[nH]c4ncc(-c5ccc6c(c5)CC[C@@H](N5C7COCC5C7)CC6)cc34)cc2)c1` were 410 nM and 19 nM.
Taken in the same sequence, the figures for `c1cc2c(cc1-c1cnc3[nH]nc(-c4ccc(N5CCOCC5)cc4)c3c1)CC[C@@H](N1C3COCC1C3)CC2` were 190 nM and 66 nM.
As to `CP(C)(=O)c1ccc(-c2n[nH]c3ncc(-c4ccc5c(c4)CCC(N4C6COCC4C6)CC5)cc23)cc1` (racemic), the Kd in data set [3] came to 170 nM.

Source of the values: ChEMBL document CHEMBL6134930, “Discovery of AB801, a Potent and Selective Inhibitor of AXL Receptor Tyrosine Kinase for Use in Cancer Therapy” (J Med Chem, 2025).
